Results on twelve molecules are retold here after ChEMBL document CHEMBL2073927, “ABCG2 transports sulfated conjugates of steroids and xenobiotics” (J Biol Chem, 2003).

In series [1] the target is T1, Broad substrate specificity ATP-binding cassette transporter ABCG2 (Homo sapiens, UniProt Q9UNQ0).
T1 sequence (Q9UNQ0 whole entry): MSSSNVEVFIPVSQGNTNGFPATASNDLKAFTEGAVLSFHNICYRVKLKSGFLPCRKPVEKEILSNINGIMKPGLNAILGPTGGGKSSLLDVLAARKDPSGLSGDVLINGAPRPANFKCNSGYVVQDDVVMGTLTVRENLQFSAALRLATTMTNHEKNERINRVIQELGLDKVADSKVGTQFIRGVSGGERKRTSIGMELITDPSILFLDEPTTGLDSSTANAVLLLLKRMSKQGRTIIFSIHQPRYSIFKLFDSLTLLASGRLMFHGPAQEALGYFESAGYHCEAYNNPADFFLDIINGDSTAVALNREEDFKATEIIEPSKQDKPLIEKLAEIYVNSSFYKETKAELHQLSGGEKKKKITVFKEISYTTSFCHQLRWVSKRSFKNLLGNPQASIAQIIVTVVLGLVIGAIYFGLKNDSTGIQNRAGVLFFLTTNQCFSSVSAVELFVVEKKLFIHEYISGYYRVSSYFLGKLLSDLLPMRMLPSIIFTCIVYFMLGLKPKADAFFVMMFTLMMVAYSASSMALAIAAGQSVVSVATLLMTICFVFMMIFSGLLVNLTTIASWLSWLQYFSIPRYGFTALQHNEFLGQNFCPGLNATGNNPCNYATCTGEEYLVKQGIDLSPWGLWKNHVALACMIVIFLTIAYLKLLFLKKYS
Description: (§1) TP_TRANSPORTER: uptake (vesicle) in membrane vesicles from ABCG2-expressing P388 cells. The class given is functional, cell membranes. The conditions noted are these: mouse.

Series [2] has as its target T2, ABCG2 (Homo sapiens, UniProt Q9UNQ0).
T2 sequence (Q9UNQ0 whole entry): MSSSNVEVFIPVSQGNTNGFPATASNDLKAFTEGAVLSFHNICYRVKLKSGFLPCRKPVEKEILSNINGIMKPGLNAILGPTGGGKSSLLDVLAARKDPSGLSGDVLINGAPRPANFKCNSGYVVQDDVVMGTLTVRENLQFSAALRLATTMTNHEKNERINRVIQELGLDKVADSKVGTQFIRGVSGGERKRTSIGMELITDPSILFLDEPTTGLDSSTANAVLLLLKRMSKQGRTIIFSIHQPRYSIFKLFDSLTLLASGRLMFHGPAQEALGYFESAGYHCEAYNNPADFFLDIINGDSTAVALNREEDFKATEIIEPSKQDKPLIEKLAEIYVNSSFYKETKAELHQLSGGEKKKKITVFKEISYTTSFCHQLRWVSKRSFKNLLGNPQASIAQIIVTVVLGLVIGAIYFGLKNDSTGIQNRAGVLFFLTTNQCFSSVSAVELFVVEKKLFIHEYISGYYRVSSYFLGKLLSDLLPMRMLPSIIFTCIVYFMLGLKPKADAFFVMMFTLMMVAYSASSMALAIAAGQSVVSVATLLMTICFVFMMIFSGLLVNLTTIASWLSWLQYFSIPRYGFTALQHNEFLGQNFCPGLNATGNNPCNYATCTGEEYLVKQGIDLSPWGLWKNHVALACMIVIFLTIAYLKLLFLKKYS
Description: TP_TRANSPORTER: inhibition of E1S uptake by 2.4-dinitrophenyl-S-glutathione at a concentration of 80uM in membrane vesicles from ABCG2-expressing P388 cells. The class given is functional, cell membranes, Membrane vesicle. Also noted: scale not given: the % may be the effect or the level left. The conditions noted are these: mouse, probe E1S, read-out: Activity.

Series [3] has as its target T2, ABCG2. The series is described as follows: TP_TRANSPORTER: inhibition of E1S uptake by 4-Methylumbelliferone glucuronide at a concentration of 500uM in membrane vesicles from ABCG2-expressing P388 cells. The conditions noted are these: mouse, probe E1S, read-out: Activity. In kind it is functional, cell membranes, Membrane vesicle. Details: scale not given: the % may be the effect or the level left.

Series [4] has as its target T2, ABCG2. Description: TP_TRANSPORTER: inhibition of E1S uptake by Doxorubicin at a concentration of 1000uM in membrane vesicles from ABCG2-expressing P388 cells. The class given is functional, cell membranes, Membrane vesicle. Also noted: scale not given: the % may be the effect or the level left. The conditions noted are these: mouse, probe E1S, read-out: Activity.

Series [5] addresses T1, Broad substrate specificity ATP-binding cassette transporter ABCG2. Description: TP_TRANSPORTER: inhibition of E1S uptake by 6-hydroxy-5,7-dimetyl-2-metylamino-4-(3-pyridylmethyl) benzothiazole glucronid at a concentration of 250uM in membrane vesicles from ABCG2-expressing P388 cells. The conditions noted are these: mouse, p388, 250 µM. Details: scale not given: the % may be the effect or the level left. In kind it is functional, cell membranes, Membrane vesicle.

Series [6] has as its target T2, ABCG2. The series is described as follows: TP_TRANSPORTER: inhibition of E1S uptake by Estrone at a concentration of 200uM in membrane vesicles from ABCG2-expressing P388 cells. As to conditions: mouse, probe E1S, read-out: Activity. Details: scale not given: the % may be the effect or the level left. In kind it is functional, cell membranes, Membrane vesicle.
For series [7], the target named is T2, ABCG2. Description: TP_TRANSPORTER: inhibition of E1S uptake by Pravastatin at a concentration of 200uM in membrane vesicles from ABCG2-expressing P388 cells. In kind it is functional, cell membranes, Membrane vesicle. Details: scale not given: the % may be the effect or the level left. As to conditions: mouse, probe E1S, read-out: Activity.
Substrate in series [8]: CNc1nc2c(Cc3cccnc3)c(C)c(OS(=O)(=O)O)c(C)c2s1
Described as §1. In kind it is functional, cell membranes.

Substrate in series [9]: C[C@]12CC[C@@H]3c4ccc(OS(=O)(=O)O)cc4CC[C@H]3[C@@H]1CCC2=O
The series is described as §1. In kind it is functional, cell membranes.

Substrate in series [10]: Cc1cc(=O)oc2cc(OS(=O)(=O)O)ccc12
Description: TP_TRANSPORTER: uptake (vesicle) in membrane vesicle from ABCG2-expressing mouse lymphoma(P388)cells. The class given is functional, cell membranes.

The Km is the substrate concentration at which the rate is half of its maximum.

Structures can show the parent of a compound that is named as a salt.

As to `Cc1cc(=O)oc2cc(OS(=O)(=O)O)ccc12`, the Activity result in series [1] is “substrate []”.

Take `N[C@@H](CCC(=O)N[C@H](CSc1ccc([N+](=O)[O-])cc1[N+](=O)[O-])C(=O)NCC(=O)O)C(=O)O`: the activity at 80 µM on ABCG2 [2] stood at 78%. Moreover, the Activity result in series [1] is “substrate []”.

For the molecule `O=C(O)[C@H]1O[C@@H](OCc2cc(=O)oc3cc(O)ccc23)[C@H](O)[C@@H](O)[C@@H]1O`, the Activity entry in series [1] was “substrate []”. Moreover, the activity at 500 µM at ABCG2 [3] is 84%.

`COc1cccc2c1C(=O)c1c(O)c3c(c(O)c1C2=O)C[C@@](O)(C(=O)CO)C[C@@H]3O[C@H]1C[C@H](N)[C@H](O)[C@H](C)O1` [DOXORUBICIN]: the activity at 1000 µM on ABCG2 [4] came to 72%.

As to `CNc1nc2c(Cc3cccnc3)c(C)c(O[C@@H]3O[C@H](C(=O)O)[C@@H](O)[C@H](O)[C@H]3O)c(C)c2s1` [E3040 GLUCURONIDE], the Activity is 76% in series [5] and “substrate []” in series [1].

As for `CNc1nc2c(Cc3cccnc3)c(C)c(OS(=O)(=O)O)c(C)c2s1` [E3040 SULFATE], the Activity entry in series [1] was “substrate []”.

`C[C@]12CC[C@@H]3c4ccc(O)cc4CC[C@H]3[C@@H]1CC[C@@H]2O[C@@H]1O[C@H](C(=O)O)[C@@H](O)[C@H](O)[C@H]1O` [ESTRADIOL 17B GLUCURONIDE]: the Activity result in series [1] is “substrate []”.

As to `C[C@]12CC[C@@H]3c4ccc(O)cc4CC[C@H]3[C@@H]1CCC2=O` [ESTRONE], on ABCG2 [6], the activity at 200 µM amounted to 56%.

With `CN(Cc1cnc2nc(N)nc(N)c2n1)c1ccc(C(=O)N[C@@H](CCC(=O)O)C(=O)O)cc1` [METHOTREXATE], the Activity result in series [1] was “substrate []”.

Take `C[C@]12CC[C@H](OS(=O)(=O)O)CC1=CC[C@@H]1[C@@H]2CC[C@]2(C)C(=O)CC[C@@H]12` [PRASTERONE SULFURIC ACID]: the Activity result in series [1] is “substrate []”.

Take `CC[C@H](C)C(=O)O[C@H]1C[C@H](O)C=C2C=C[C@H](C)[C@H](CC[C@@H](O)C[C@@H](O)CC(=O)O)[C@H]21` [PRAVASTATIN]: the activity at 200 µM at ABCG2 [7] was 76%.

B1: Broad substrate specificity ATP-binding cassette transporter ABCG2 (Homo sapiens) (protein)
chain: MSSSNVEVFIPVSQGNTNGFPATASNDLKAFTEGAVLSFHNICYRVKLKSGFLPCRKPVEKEILSNINGIMKPGLNAILGPTGGGKSSLLDVLAARKDPSGLSGDVLINGAPRPANFKCNSGYVVQDDVVMGTLTVRENLQFSAALRLATTMTNHEKNERINRVIQELGLDKVADSKVGTQFIRGVSGGERKRTSIGMELITDPSILFLDEPTTGLDSSTANAVLLLLKRMSKQGRTIIFSIHQPRYSIFKLFDSLTLLASGRLMFHGPAQEALGYFESAGYHCEAYNNPADFFLDIINGDSTAVALNREEDFKATEIIEPSKQDKPLIEKLAEIYVNSSFYKETKAELHQLSGGEKKKKITVFKEISYTTSFCHQLRWVSKRSFKNLLGNPQASIAQIIVTVVLGLVIGAIYFGLKNDSTGIQNRAGVLFFLTTNQCFSSVSAVELFVVEKKLFIHEYISGYYRVSSYFLGKLLSDLLPMRMLPSIIFTCIVYFMLGLKPKADAFFVMMFTLMMVAYSASSMALAIAAGQSVVSVATLLMTICFVFMMIFSGLLVNLTTIASWLSWLQYFSIPRYGFTALQHNEFLGQNFCPGLNATGNNPCNYATCTGEEYLVKQGIDLSPWGLWKNHVALACMIVIFLTIAYLKLLFLKKYS
Consider B1, for which the Km amounted to 27 µM in series [8], 17 µM in [9] and 13 µM in series [10].
